Measurements: patent publication US5559101A, “L-ribofuranosyl nucleosides” (priority 1994, dated 1996)
In brackets after ≈: the same amount, converted by molar mass. Where two headings read alike, the source gives them in different places.

How the values were obtained:
SKLU (lung) = test: Radiometric growth inhibition of tumor cells, SKLU; assay type: cell-based, human; design: % SURVIVAL TUMOR: concentration or dose not given beside the values
From the text: (§1) CELL LINES: Eight different established human cell lines CALU (lung), COLO320 (colon), H578St (breast), HT-29 (colon), MCF-7 (breast), OM-1 (colon), SKLU (lung) and SKMES(lung), and two control cell lines (bone marrow and/or fibroblast cells) were utilized. All cell lines were obtained from the Tumor Cloning Laboratory, Institute for Drug Development, Cancer Therapy and Research Center, San Antonio, Tex. All cell lines grew as monolayers in the appropriate culture medium supplemented with heat-inactivated calf serum. All reagents were obtained from Grand Island Biological Co., Grand Island, N.Y.
(§2) The iv formulations of the compounds of the present invention were prepared with sterile buffered saline and stored at -70° C. until required for testing.
(§3) Following trypsinization, tumor cells were suspended in tissue culture medium and exposed to the antitumor agents continuously at three different concentrations: 10, 1 and 0.1 μg/ml.
(§4) RADIOMETRIC MEASUREMENT OF GROWTH INHIBITION: Growth inhibition was assessed with the BACTEC System 460 (Johnston Laboratories, Towson, Md.) after addition of the antitumor agent to the cell in the respective growth medium containing ^14 C-glucose at a final concentration of 2 μCi/ml.
(§5) Two mls of the tumor cell suspension containing radioactive glucose were seeded into sterile, disposable 15 ml vials by injection through self-sealing rubber-aluminum caps. […] The seeded vials were then incubated at 37° C. Measurement of the release of ^14 CO2 resulting from the metabolism of ^14 C-glucose were performed on days 6, 9, 12 and 15 in the BACTEC instrument. This instrument flushes the ^14 CO2 containing air out of the vials into an ionization chamber that converts dpm to growth index values. […] Each data point represents triplicate values.
(§6) All compounds were dosed on an equimilimolar basis.

HT29 (colon) = test: Radiometric growth inhibition of tumor cells, HT29; assay type: cell-based, human; design: % SURVIVAL TUMOR: concentration or dose not given beside the values; details: for IC50: concentration required to kill 50%
From the text: as §1, §2, §3, §4, §5, §6

MCF-7 (breast) = test: Radiometric growth inhibition of tumor cells, MCF-7; assay type: cell-based, human; design: % SURVIVAL TUMOR: concentration or dose not given beside the values; details: MCF-7; for IC50: concentration required to kill 50%; for % SURVIVAL TUMOR: continuous exposure
From the text: as §1, §2, §3, §4, §5, §6

OM-1 (colon) = test: Radiometric growth inhibition of tumor cells, OM-1; assay type: cell-based, human; design: % SURVIVAL TUMOR: concentration or dose not given beside the values
From the text: as §1, §2, §3, §4, §5, §6

[1] = In vitro survival of bone marrow control cells (radiometric BACTEC); assay type: cell-based; design: concentration or dose not given beside the values
From the text: as §1, §2, §3, §4, §5, §6

CALU (lung) = test: Radiometric growth inhibition of tumor cells, CALU; assay type: cell-based, human; design: % SURVIVAL TUMOR: concentration or dose not given beside the values; details: for IC50: Homo sapiens, concentration required to kill 50%, read-out: IC 50
From the text: as §1, §2, §3, §4, §5, §6

COLO320 (colon) = test: Radiometric growth inhibition of tumor cells, COLO320; assay type: cell-based, human; design: % SURVIVAL TUMOR: concentration or dose not given beside the values; details: for IC50: Homo sapiens, COLO 320
From the text: as §1, §2, §3, §4, §5, §6

[2] = Homo sapiens, HT-29, HT29, read-out: IC 50
[3] = Homo sapiens, OM-1, concentration required to kill 50%, read-out: IC 50
[4] = Homo sapiens, SKLU, concentration required to kill 50%, read-out: IC 50
[5] = COLO320, concentration required to kill 50%, read-out: IC 50
[6] = human, colo320 colon tumor cells
[7] = Homo sapiens, MCF7, read-out: IC 50
[8] = bone marrow control cells, continuous exposure, read-out: % SURVIVAL BONE MARROW

| Compound | viability ([1]; bone marrow cells) | IC50 (HT29 (colon); [2]) | IC50 (OM-1 (colon); [3]) | IC50 (SKLU (lung); [4]) | viability [1, 8] | % SURVIVAL TUMOR (OM-1 (colon); OM-1, continuous exposure) | other results |
| --- | --- | --- | --- | --- | --- | --- | --- |
| 2'-Deoxy-β-L-5-fluorouridine |  |  |  |  |  |  | IC50 (SKLU (lung); SKLU, concentration required to kill 50%): 32.5; IC50 (HT29 (colon); HT29): 85.2; IC50 (MCF-7 (breast)): 16.6; IC50 (OM-1 (colon); OM-1, concentration required to kill 50%): 62.9 |
| Nc1ncnc2c1ncn2[C@@H]1C[C@@H](O)[C@H](CO)O1 [2'-β-L-deoxy ribofuranosyl adenine] | 64.9% |  |  |  |  |  | IC50 (CALU (lung); CALU): 0.696 µg/mL (≈ 2.77 µM); % SURVIVAL TUMOR (CALU (lung); human, calu lung tumor cells): 28.9% |
| O=c1ccn([C@@H]2O[C@@H](CO)[C@H](O)[C@@H]2O)c(=O)[nH]1 [α-L-ribofuranosyl-uracil, 1-α-L-Ribofuranosyluracil] | 96.6% |  |  |  |  |  | IC50 (CALU (lung); CALU): > 10 µg/mL; % SURVIVAL TUMOR (CALU (lung); human, calu lung tumor cells): 89.1% |
| O=c1ccn([C@H]2O[C@@H](CO)[C@H](O)[C@@H]2O)c(=O)[nH]1 [β-L-ribofuranosyl uracil, 1-β-L-Ribofuranosyluracil] | 112% | > 10 µg/mL | 0.094 µg/mL (≈ 0.385 µM) |  |  |  | % SURVIVAL TUMOR (HT29 (colon); human, ht29 colon tumor cells): 78.7%; % SURVIVAL TUMOR (OM-1 (colon); human, om-1 colon tumor cells): 30.8% |
| O=c1[nH]c(=O)n([C@@H]2C[C@@H](O)[C@H](CO)O2)cc1F [2'-Deoxy-β-L-5-fluorouridine] | 109% | 8.46 µg/mL (≈ 34.4 µM) | 56.1 µg/mL (≈ 228 µM) | 59.9 µg/mL (≈ 243 µM) |  |  | % SURVIVAL TUMOR (SKLU (lung); human, sklu lung tumor cells): 86.2%; IC50 (COLO320 (colon); [5]): 6.56 µg/mL (≈ 26.6 µM); % SURVIVAL TUMOR (COLO320 (colon); [6]): 19.6%; % SURVIVAL TUMOR (HT29 (colon); HT29, continuous exposure): 42.5%; IC50 (MCF-7 (breast); [7]): 60.7 µg/mL (≈ 247 µM); % SURVIVAL TUMOR (MCF-7 (breast)): 86.9%; % SURVIVAL TUMOR (OM-1 (colon); human, om-1 colon tumor cells): 85.2% |
| O=c1ccn([C@@H]2CC[C@H](CO)O2)c(=O)[nH]1 [2',3'-β-L-dideoxy ribofuranosyl uracil, 2',3'-Dideoxy-β-L-uridine] | 79.8% |  |  |  |  |  | % SURVIVAL TUMOR (CALU (lung); CALU, continuous exposure): 0.4%; IC50 (CALU (lung); CALU): 0.623 µg/mL (≈ 2.94 µM) |
| O=C(OC[C@@H]1O[C@H](n2ccc(=S)[nH]c2=O)C[C@H]1OC(=O)c1ccccc1)c1ccccc1 [3',5'-Di-O-benzoyl-2'deoxy-4-thio β-L-uridine] |  |  | 0.98 µg/mL (≈ 2.17 µM) | 88.7 µg/mL (≈ 196 µM) | 102% | 35.7% | % SURVIVAL TUMOR (SKLU (lung); SKLU, continuous exposure): 77.7%; IC50 (MCF-7 (breast); [7]): > 10 µg/mL; % SURVIVAL TUMOR (MCF-7 (breast)): 84.5% |
| O=c1[nH]c(=O)n([C@@H]2O[C@@H](CO)[C@H](O)[C@@H]2O)cc1F [α-L-ribofuranosyl-5-fluorouracil, 1-α-L-ribofuranosyl-5-fluorouracil] |  |  | 0.87 µg/mL (≈ 3.32 µM) | 43.4 µg/mL (≈ 166 µM) | 94.6% | 0.4% | % SURVIVAL TUMOR (SKLU (lung); SKLU, continuous exposure): 71% |
| Nc1ncnc2c1ncn2[C@H]1O[C@@H](CO)[C@H](O)[C@@H]1O [β-L-ribofuranosyl adenine, 9-β-L-Ribofuranosyladenine] | 91.2% |  | 4.23 µg/mL (≈ 15.8 µM) |  |  |  | % SURVIVAL TUMOR (OM-1 (colon); human, om-1 colon tumor cells): 50.9% |
| Nc1ccn([C@H]2O[C@@H](CO)[C@H](O)[C@@H]2O)c(=O)n1 [β-L-ribofuranosyl cytosine, 1-β-L-Ribofuranosylcytosine] |  |  |  |  | 72.6% | 39.2% | IC50 (OM-1 (colon); Homo sapiens): 5.9 µg/mL (≈ 24.3 µM) |
| NC1=N[C@H]2O[C@@H](CO)[C@H](O)[C@H]2O1 [2-Amino-β-L-arabinofurano[1',2':4,5]oxazoline] |  |  | 5 µg/mL (≈ 28.7 µM) |  | 110% | 41.3% | % SURVIVAL TUMOR (CALU (lung); CALU, continuous exposure): 89%; IC50 (CALU (lung); CALU): 44.6 µg/mL (≈ 256 µM); IC50 (MCF-7 (breast); [7]): 187 µg/mL (≈ 1070 µM); % SURVIVAL TUMOR (MCF-7 (breast)): 88.8% |
| Nc1ccn([C@@H]2O[C@@H](CO)[C@H](O)[C@@H]2O)c(=O)n1 [α-L-ribofuranosyl cytosine, 1-α-L-Ribofuranosylcytosine] |  |  |  |  | 120% |  | IC50 (SKLU (lung); Homo sapiens): 240 µg/mL (≈ 987 µM); % SURVIVAL TUMOR (SKLU (lung); SKLU, continuous exposure): 88.8%; % SURVIVAL TUMOR (COLO320 (colon); COLO320, continuous exposure): 82.3%; IC50 (COLO320 (colon)): 34.9 µg/mL (≈ 143 µM) |
| Nc1nc(O)c2ncn([C@H]3O[C@@H](CO)[C@H](O)[C@@H]3O)c2n1 [β-L-ribofuranosyl guanine, 9-β-L-Ribofuranosylguanine] |  | > 10 µg/mL | 0.097 µg/mL (≈ 0.342 µM) |  | 170% | 44.7% | % SURVIVAL TUMOR (HT29 (colon); HT29, continuous exposure): 80.9% |
| O=c1[nH]c(=O)n([C@H]2O[C@@H](CO)[C@H](O)[C@@H]2O)cc1F [β-L-ribofuranosyl-5-fluorouracil, 1-β-L-Ribofuranosyl-5-fluorouracil] |  | 51 µg/mL (≈ 195 µM) | 37.8 µg/mL (≈ 144 µM) | 32.2 µg/mL (≈ 123 µM) | 130% | 71.9% | % SURVIVAL TUMOR (SKLU (lung); SKLU, continuous exposure): 69.7%; % SURVIVAL TUMOR (COLO320 (colon); COLO320, continuous exposure): 81.9%; IC50 (COLO320 (colon); [5]): 188 µg/mL (≈ 717 µM); % SURVIVAL TUMOR (HT29 (colon); HT29, continuous exposure): 64.7% |
| Cc1cn([C@@H]2C[C@@H](O)[C@H](CO)O2)c(=O)[nH]c1=O [2'-β-L-deoxy ribofuranosyl thymine, 2'-Deoxy-β-L-thymidine] | 159% | 30.4 µg/mL (≈ 126 µM) | 6.5 µg/mL (≈ 26.8 µM) | 38.2 µg/mL (≈ 158 µM) |  |  | % SURVIVAL TUMOR (SKLU (lung); human, sklu lung tumor cells): 72.4%; IC50 (COLO320 (colon); [5]): 57.4 µg/mL (≈ 237 µM); % SURVIVAL TUMOR (COLO320 (colon); [6]): 67.0%; % SURVIVAL TUMOR (HT29 (colon); human, ht29 colon tumor cells): 72.2%; % SURVIVAL TUMOR (OM-1 (colon); human, om-1 colon tumor cells): 37.6% |
| O=c1ccn2c(n1)O[C@H]1[C@@H](O)[C@H](CO)O[C@H]12 [O^2,O^2' -Anhydro-1-α-L-ribofuranosyluracil] |  |  | 2.97 µg/mL (≈ 13.1 µM) |  | 70.9% | 46.4% |  |
| O=c1[nH]cnc2c1ncn2[C@@H]1C[C@@H](O)[C@H](CO)O1 [2'-β-L-deoxy ribofuranosyl hypoxanthine, 2'-Deoxy-β-L-inosine] | 110% |  | > 10 µg/mL |  |  |  | % SURVIVAL TUMOR (OM-1 (colon); human, om-1 colon tumor cells): 83.1% |
| O=C(OC[C@@H]1O[C@@H](n2ccc(=S)[nH]c2=O)[C@@H](OC(=O)c2ccccc2)[C@H]1OC(=O)c1ccccc1)c1ccccc1 [1-(2,3,5-Tri-O-benzoyl-α-L-ribofuranosyl)-4-thiouracil] |  | > 10 µg/mL |  |  | 85.9% |  | % SURVIVAL TUMOR (HT29 (colon); HT29, continuous exposure): 75% |
| O=c1[nH]c(=S)ccn1[C@@H]1C[C@@H](O)[C@H](CO)O1 [2'-β-L-deoxy ribofuranosyl-4-thiouracil, 2'-Deoxy-β-L-4-thiouridine] |  |  | 34.3 µg/mL (≈ 140 µM) | > 10 µg/mL | 98.2% | 82.3% | % SURVIVAL TUMOR (SKLU (lung); SKLU, continuous exposure): 79.4% |
| NC1=N[C@@H]2O[C@@H](CO)[C@H](O)[C@@H]2O1 [2-Amino-α-L-ribofurano[1',2':4,5]oxazoline] |  |  | 0.026 µg/mL (≈ 0.149 µM) |  | 115% | 2.6% |  |
